Experimental data: patent US11365215B2, “Method for preventing, improving, or treating inflammatory bowel disease” (Research & Business Foundation Sungkyunkwan University, priority 2015, dated 2022)
Entries after “also recorded” stand apart in the source; their conditions may differ. Like-named read-outs stand apart in the source and are kept apart here. Peptide text beside a SMILES is read from it.

What was measured:
[1] = test system: AP-1; experiment: AP-1-Luc reporter luciferase assay in LPS-treated RAW 246.7 cells; format: cell-based; settings: 100 nM for 30 minutes, LPS 100 ng/ml 2 hours
Method: RAW 246.7 macrophage cells were transfected with AP-1-Luc reporter plasmid as described in Example 2.3. After 24 hours, the transfected cells with AP-1-Luc reporter plasmid were pretreated with compound 1.1 (SEQ ID NO: 2) (100 nM), IRAK1/4 inhibitor (25 μM), and smaducin-6 (100 nM) for 30 minutes, and then further treated with LPS (100 ng/ml) for 2 hours.

[2] = Tissue distribution after oral administration; format: in vivo; settings: rat, oral 10 mg/kg
Method: Compound 1.1 (SEQ ID NO: 2) was orally administered to a rat at dose of 10 mg/kg, and after 2 hours and 8 hours, concentrations of compound 1.1 (SEQ ID NO: 2) were measured in the small intestinal tissue, large intestinal tissue, appendix tissue, retrimentum in small intestine and retrimentum in large intestine.

[3] = test system: DSS-induced chronic colitis; experiment: Histological analyses of colon villi and mucous membranes in DSS-induced chronic colitis model; format: in vivo, mice; settings: 100 mpk
[4] = test system: inflammatory signaling pathway protein complex mediated by MyD88 or RIP1; experiment: Immunoprecipitation of inflammatory signaling pathway protein complex in LPS-treated RAW264.7 cells; format: cell-based; settings: pretreated, then LPS
Text: Specifically, using antibodies corresponding to proteins which relate to the formation of Toll-like receptors (TLRs) signaling pathway protein complex (for example, IRAK1, TRAF6, MyD88, RIP1 and Pellino-1), disruption of the formation of inflammatory signaling pathway protein complexes was affirmed by immunoprecipitation. As reference control, a relative amount of expression of β-actin from the total cell lysate was compared and presented using Western blot.
RAW264.7 macrophage cells were individually retreated with compound 1.1 (SEQ ID NO: 2) and compound 1.2, and smaducin-6, and further treated with LPS. These RAW264.7 macrophage cells were collected, lysed in a lysis butter (PBS containing 0.5% Triton X-100, 20 mM HEPES (pH 7.4), 150 mM NaCl, 12.5 mM β-glycerol phosphate, 1.5 mM MgCl2, 10 mM NaF, 2 mM DTT, 1 mM Na3O4V, 2 mM EGTA, and 1 mM Protease Inhibitor (PMSF)), and centrifuged at 13000 rpm for 10 minutes. For immunoprecipitation assays, the supernatant was incubated at 4° C. for 12 hours, with protein-A agarose beads and the antibodies corresponding to the above proteins, and the beads were subsequently washed three times with the lysis buffer. The immunoprecipitated substances were dissociated from the beads with addition of 2× sample buffer, and were boiled. The prepared samples were loaded on SDS-polyacrylamide gel (FIG. 7).

[5] = test system: MAPK signaling pathway proteins (ERK1/2, JNK, p38); experiment: Western blot of MAPK signaling pathway protein phosphorylation in LPS-treated RAW 246.7 cells; format: cell-based; settings: 100 nM for 30 minutes
Method: RAW 246.7 macrophage cells were pretreated with compound 1.1 (SEQ ID NO: 2), compound 1.2 and reference compound 1 (SEQ ID NO: 16) at a concentration of 100 nM for 30 minutes and then further treated with LPS for 0 hour, 0.5 hour, 1 hour and 2 hours. […] Changes of the concentration upon phosphorylation of each protein were measured by immunoblotting using anti-phosphorylation antibodies.
Specifically, RAW 246.7 macrophage cells were pretreated with DMSO, compound 1.1 (SEQ ID NO: 2) (100 nM), IRAK1/4 inhibitor (25 μM), and smaducin-6 (100 nM) for 30 minutes, and then further treated with LPS (100 ng/ml) for two hours.

[6] = test system: MAPK signaling pathway proteins (ERK1/2, JNK, p38); experiment: Western blot of MAPK signaling pathway protein phosphorylation in LPS-treated BMDM cells; format: cell-based; settings: 100 pM, 1 nM, 100 nM, LPS 2 hours
Method: BMDM cells were pretreated with DMSO, reference compound 1 (SEQ ID NO: 16), compound 1.1 (SEQ ID NO: 2) and smaducin-6 at various concentrations of 100 pM, 1 nM and 100 nM and then further treated with LPS 2 hours. Thereafter, Western blot analysis was performed.

[7] = test system: experimental autoimmune encephalomyelitis; experiment: MOG-induced experimental autoimmune encephalomyelitis model; format: in vivo; settings: EAE mice
Method: To confirm the effect of compound 1.1 (SEQ ID NO: 2) on multiple sclerosis, mice (10 weeks old, female) were sensitized with MOG35-55/[…] and PTX and an experimental autoimmune encephalomyelitis mouse model was obtained. Experimental methods were described in Oncotarget, Vol. 7 (2016), No. 13, 15382-15393, which is incorporated herein by reference.
As reference group, 10000 unit of Interferon-beta was hypodermically injected for 25 days, once every other day. Clinical score were measured and presented.

[8] = test system: BRE (BMP6 signaling); experiment: BRE-Luc reporter assay in Raw 264.7 cells treated with BMP6; format: cell-based; settings: 100 ng/mL BMP6 two hours
Method: Specifically, 5×NF-κB-Luc reporter plasmid, SBE-Luc reporter plasmid, and BRE-Luc reporter plasmid were individually transfected into Raw 264.7 macrophage cells. After 24 hours, the cells transfected with the NF-κB-Luc reporter plasmid were treated with 100 ng/mL of LPS, the cells transfected with the SBE-Luc reporter plasmid were treated with 5 ng/mL of TFG-β1, and the cells transfected with the BRE-Luc reporter plasmid were treated with 100 ng/mL of BMP6 for two hours.

[9] = test system: DSS-induced chronic colitis; experiment: Disease activity index in DSS-induced chronic colitis model; format: in vivo, Mice (C57BL/6); settings: mice
Method: Mice (7-8 weeks, female, C57BL/6) were fed 2% DSS polymer (MW of about 50000 Da) in drinking water for 5-7 days, and colitis was induced every 2 to 15 days. Compound 1.1 (SEQ ID NO: 2) was then administered orally to the mice, which had induced chronic colitis by DSS, in an amount of 50 mg/kg, 100 mg/kg, 200 mg/kg and 400 mg/kg, respectively, from the third day after feeding DDS, daily, for 11 days. Body weights, diarrhea and hemafecia of the mice were checked daily and the disease activity indexes were measured (FIG. 10).

CCCCCCCCCCCCCCCC(=O)N1CCC[C@H]1C(=O)N1CCC[C@H]1C(=O)NCC(=O)N[C@@H](Cc1ccc(O)cc1)C(=O)O [compound 1.1, (S)-3-(4-hydroxyphenyl)-2-(2-((S)-1-((S)-1-palmitoylpyrrolidine-2-carbonyl)pyrrolidine-2-carboxamido)acetamido)propanoic acid] (HELM PEPTIDE1{[CCCCCCCCCCCCCCCC(=O)[*:2]].P.P.G.Y}$$$$V2.0)
AP-1-Luc luciferase activity (MAPK signaling pathway) [1]: did not suppress MAPK signaling pathways
concentration at 2 h ([2]; appendix tissue, 2 hours, read-out: Concentration in appendix tissue): 22.7 ± 2.56 ng/mL
concentration at 8 h ([2]; appendix tissue, read-out: Concentration in appendix tissue): 48.2 ± 46 ng/mL
concentration at 2 h ([2]; large intestinal tissue, 2 hours, read-out: Concentration in large intestinal tissue): 30 ± 10 ng/mL
concentration at 8 h ([2]; large intestinal tissue, read-out: Concentration in large intestinal tissue): 33.2 ± 28.8 ng/mL
Concentration in small intestinal tissue ([2]; 2 hours): 75 ± 70.2 ng/mL
concentration at 8 h ([2]; retrimentum in large intestine, read-out: Concentration in retrimentum in large intestine): 1280 ± 52.7 ng/mL
concentration at 2 h ([2]; retrimentum in small intestine, 2 hours, read-out: Concentration in retrimentum in small intestine): 1120 ± 217 ng/mL
concentration at 8 h ([2]; retrimentum in small intestine, read-out: Concentration in retrimentum in small intestine): 876 ± 900 ng/mL
concentration at 8 h ([2]; small intestinal tissue, read-out: Concentration in small intestinal tissue): 78.1 ± 59.9 ng/mL
histological damages of large intestinal tissues ([3]; DSS-induced chronic colitis model): alleviated
recovery of the mucous membranes (Alcian blue) ([3]; in comparison to non-treated group and sulfasalazine 500 mpk): greater recovery of the mucous membranes
formation of inflammatory signaling pathway protein complex mediated by MyD88 or RIP1 [4]: disrupted
phosphorylation of the MAPK signaling pathway proteins (ERK1/2, JNK, p38) ([5]; LPS 0, 0.5, 1 and 2 hours): did not inhibit phosphorylation
MAPK signaling pathway / phosphorylation of ERK, JNK, p38 ([5]; LPS 100 ng/ml two hours): neither suppressed MAPK signaling pathway nor inhibited phosphorylation of the proteins
phosphorylation of MAPK/ERK signaling pathway proteins (ERK1/2, JNK, p38) [6]: not related to suppressing phosphorylation
changes in body weights ([7]; compared to the EAE disease model group): did not have reduced weight
clinical score / treatment effect ([7]; hypodermic 1 mg/kg and 40 mg/kg every other day for 25 days, vs interferon-beta 10000 unit): effective in the treatment for multiple sclerosis; also recorded: the same or greater treatment effect and safety
activation of BRE induced by BMP6 treatment [8]: not inhibited
disease activity (disease activity index score) ([9]; oral 50, 100, 200, 400 mg/kg daily for 11 days): decreased as the dose increased
dose at which the decrease in disease activity was saturated ([9]; oral daily for 11 days): 200 mg/kg
